These are literature values, as cited in patent US10646430B2, “Topical compositions for stimulating adipogenesis and lipogenesis to reduce the signs of skin aging” (Kimberly-Clark Worldwide, Inc., priority 2014, dated 2020).

This series deals with 3T3-L1 cells. Conditions: Kim et al., Nutr. Res. 32(6): 439-447.

Regarding Fucoidan, the “adipogenesis (literature)” value was “inhibit adipogenesis”.
